This is an account of results in BindingDB's records for doi:10.1016/j.ejmech.2010.02.027 (University of Florida, 2010).

Neuronal acetylcholine receptor subunit alpha-4/beta-2, sequence (P09483 whole entry): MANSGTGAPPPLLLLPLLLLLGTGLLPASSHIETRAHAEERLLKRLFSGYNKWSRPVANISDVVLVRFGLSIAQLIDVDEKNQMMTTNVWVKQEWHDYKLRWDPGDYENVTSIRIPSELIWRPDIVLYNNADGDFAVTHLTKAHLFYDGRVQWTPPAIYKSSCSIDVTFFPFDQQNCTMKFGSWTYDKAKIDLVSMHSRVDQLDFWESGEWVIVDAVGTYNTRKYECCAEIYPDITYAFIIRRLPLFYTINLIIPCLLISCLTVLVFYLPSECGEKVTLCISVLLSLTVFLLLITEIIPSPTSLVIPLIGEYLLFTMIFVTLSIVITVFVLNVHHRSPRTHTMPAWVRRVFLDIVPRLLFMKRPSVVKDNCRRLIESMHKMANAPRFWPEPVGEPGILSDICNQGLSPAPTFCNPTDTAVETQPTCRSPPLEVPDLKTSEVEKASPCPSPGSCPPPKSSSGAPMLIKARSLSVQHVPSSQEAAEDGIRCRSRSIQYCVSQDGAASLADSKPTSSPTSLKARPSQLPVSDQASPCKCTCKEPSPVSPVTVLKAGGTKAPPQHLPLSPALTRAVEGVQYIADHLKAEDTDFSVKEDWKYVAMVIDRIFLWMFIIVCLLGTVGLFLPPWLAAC
Neuronal acetylcholine receptor subunit alpha-4/beta-2, sequence (P12390 whole entry): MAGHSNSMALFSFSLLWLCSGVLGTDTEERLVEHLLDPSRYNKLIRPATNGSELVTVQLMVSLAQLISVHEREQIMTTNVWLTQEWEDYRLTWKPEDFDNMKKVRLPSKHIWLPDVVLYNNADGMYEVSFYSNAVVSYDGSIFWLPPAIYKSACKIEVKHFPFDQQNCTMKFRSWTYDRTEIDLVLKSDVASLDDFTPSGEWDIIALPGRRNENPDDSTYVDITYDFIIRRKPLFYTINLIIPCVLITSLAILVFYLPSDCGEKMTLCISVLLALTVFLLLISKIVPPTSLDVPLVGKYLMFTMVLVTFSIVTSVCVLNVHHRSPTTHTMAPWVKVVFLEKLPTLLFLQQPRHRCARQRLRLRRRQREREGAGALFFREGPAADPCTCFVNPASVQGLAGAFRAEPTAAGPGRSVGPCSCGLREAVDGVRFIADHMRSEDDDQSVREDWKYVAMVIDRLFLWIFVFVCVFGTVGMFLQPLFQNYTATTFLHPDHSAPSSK

This test has as its target Neuronal acetylcholine receptor subunit alpha-4/beta-2 (Rattus norvegicus, UniProt P09483+P12390). Put plainly: Displacement of [3H]cytisine from alpha4beta2 nAChR in rat brain membrane after 3 hrs. (In general: Loss of bound radioactivity is the signal in a displacement assay; it reports binding, not function.)
In general, Ki refers to a measure of affinity in units of concentration, obtained from inhibition or displacement. Lower therefore signals higher affinity. `CCC(CC)Oc1cc(OC)ccc1/C=C1\CCCN=C1c1cccnc1` [3-[2-(Pentan-3-yloxy)-4-methoxybenzylidene]anabaseine] returned a Ki of 367 nM.
In turn, `CN(C)c1ccc(/C=C2\CCCN=C2c2cccnc2)cc1` [3-(4-Dimethylaminobenzylidene)anabaseine] came in with a Ki of 770 nM.
On to `CC(=O)Oc1ccc(/C=C2\CCCN=C2c2cccnc2)cc1` [3-(4-Acetoxybenzylidene)anabaseine], for which the inhibition constant Ki amounted to 602 nM.
In turn, `COc1cc(/C=C2\CCCN=C2c2cccnc2)cc(OC)c1OC` [3-(3,4,5-Trimethoxybenzylidene)anabaseine] showed a Ki of 669 nM.
As to `C(=C1/CCCN=C1c1cccnc1)/c1cc2ccccc2o1` [3-(Benzofuran-2-ylmethylene)anabaseine], the affinity, expressed as Ki, was 772 nM.
As to `COc1ccc(/C=C2\CCCN=C2c2cccnc2)c(OC(C)C)c1` [3-(2-i-Propoxy-4-methoxybenzylidene)anabaseine], the affinity corresponds to a Ki of 770 nM.
As to `CCCc1ccc(/C=C2\CCCN=C2c2cccnc2)cc1` [3-(4-n-Propylbenzylidene)anabaseine], affinity was put at a Ki of 51 nM.
The figure for `Nc1ccc(/C=C2\CCCN=C2c2cccnc2)cc1` [3-(4-Aminobenzylidene)anabaseine] is 921 nM.
The figure for `CC(=O)Nc1ccc(/C=C2\CCCN=C2c2cccnc2)cc1` [N-(4-((2-(pyridin-3-yl)-5,6-dihydropyridin-3(4H)-ylidene)methyl)phenyl)acetamide] is 420 nM.
